# How the values were obtained:
# [1] = tested on: patients with comorbid bipolar disorders; conditions: literature; cited from earlier work
# [2] = tested on: patients with alcohol dependence; assay: Study 12013A: clinical efficacy measured by POMS score; type: in vivo, human; conditions: for POMS TMD score: patients with a mood disorder at baseline according to MINI assessment
# Description: The term “POMS” is an abbreviation of “profile of mood states” and refers to a selfreport inventory scale developed to assess the effect of e.g. new medication on mood states and mood changes. The scale measures six domains: Tension-Anxiety, Depression-Rejection, Anger-Hostility, Vigour-Activity, Fatigue-Inertia, and Confusion-Bewilderment. A total mood disturbance (TMD) score can be calculated. In general, a lower POMS score indicates a better mood state than a higher score except for vigour-activity, for which a higher POMS score indicates a better mood state. The scale has been described e.g. by McNair et al., Profile of mood states. San Diego, Calif.: Educational and Industrial Testing Service and by Nyenhios and Yamamoto, J. Clin. Psychology, (1999), Vol. 55(1): 79-86.
# (§1) The diagnosis of alcohol dependence was based on the DSM-IV-TR criteria. For this purpose, the investigator interviewed the patient in a structured way by using the Mini International Neuropsychiatric Interview (MINI) standardized interview (Lecrubier et al. The Mini International Neuropsychiatric Interview (M.I.N.I.). A short diagnostic structured interview: Reliability and validity according to the CIDI. European Psychiat. (1997), 12: 224-31). The M.I.N.I. is designed as a brief structured interview for the major Axis I psychiatric disorders in DSM-IV. Its use permits a standardised assessment of the diagnostic criteria. The M.I.N.I. interview was used at the screening visit. Clinicians used it after a training session. The M.I.N.I. approach was used to select patients with a mood disorder at baseline in Example 3.
# (§2) Another approach to identify patients with a mood disorder is by defining mood disorder at baseline as any ongoing medical history coded by the Medical Dictionary for Regulatory Activities (MedDRA) Preferred Term as ‘Affective Disorder’, ‘Bipolar Disorder’, ‘Depressed Mood’, ‘Depression’, ‘Dysthymic Disorder’, ‘Hypomania’, ‘Major Depression’, ‘Mood Disorder Due To A General Medical Condition’ and/or ‘Seasonal Affective Disorder’. In examples 1 and 2 below patients classified with a mood disorder at baseline was selected based on said MedDRA terms.
# Assessment of POMs scores in Study 12013A was used to evaluate the effect of nalmefene on mood states and mood changes throughout the study. The change in POMS scores from baseline are illustrated in FIGS. 3-9.
# In general, a lower POMS score indicates a better mood state than a higher score except for vigour, illustrated in FIGS. 7a and 7b, wherein a higher POMS score indicates a better mood state.
# (§3) Table 10 below outlines drinking variables and POMS TMD score patients from the 12013A study with a mood disorder at baseline who were classified based on MINI standardized interviews.
# [3] = tested on: patients with alcohol dependence; assay: Study 12013A: clinical efficacy on the reduction of alcohol consumption (HDD, TAC); type: in vivo, human; conditions: for HDD / TAC: patients with a mood disorder at baseline according to MINI assessment
# Description: as §1, §2
# The efficacy of nalmefene on the reduction of alcohol consumption in patients with alcohol dependence (DSM-IV) was evaluated in a multi-national, multi-site, randomised, double blind, two parallel group, placebo controlled 1 year safety study (Study 12013A). The efficacy was evaluated over 24 weeks of treatment. The study included outpatients, aged ≧18 years, with a primary diagnosis of alcohol dependence. […] Patients with psychiatric co-morbidity (that is, patients who used stable doses of antipsychotics and/or certain antidepressants) were also included unless the treatment of the psychiatric comorbidity had to take priority over treatment of the drinking problem, or was likely to interfere with study treatment or impairs treatment compliance.
# The study included 639 patients, 482 of whom were treated with nalmefene 18 mg in an as-needed dosing regimen. A motivational and adherence enhancing intervention was administered to all the patients to support the patients in changing their behavior and to enhance adherence to treatment.
# The efficacy of nalmefene on the reduction of alcohol consumption was measured using two co-primary endpoints: the change from baseline to Month 6 in the monthly number of heavy drinking days (HDDs) and the change from baseline to Month 6 in the average daily total alcohol consumption (TAC). A HDD was defined as a day with a consumption ≧60 g alcohol for men and ≧40 g for women.
# as §3
# μ receptor = μ receptor (Homo sapiens, UniProt P35372); conditions: in vitro; cited from earlier work
# Mice (NMRI) [4] = assay: Forced swim test in mouse; type: in vivo; conditions: for Duration of immobility, Mean ± SEM: last 4 of 6 minutes
# Protocol: The method, which detects antidepressant activity, follows that described by Porsolt et al (Arch. Int. Pharmacodyn., 229, 327-336, 1977). Mice forced to swim in a situation from which they cannot escape eventually become immobile. Antidepressants decrease the duration of immobility.
# Nalmefene was tested as the sole active compound. Mice (NMRI) were individually placed in a cylinder (height=24 em; diameter=13 em) containing 10 cm water (22° C.) from which they cannot escape. The mice were placed in the water for 6 minutes and the duration of immobility during the last 4 minutes was measured. The latency to the first bout of immobility was also recorded starting from the beginning of the test.
# 10 mice were studied per group. The test was performed blind. Each test substance was evaluated at 3 doses (0.1, 1 and 10 mg/kg), administered s.c. 30 minutes before the test, and compared with a vehicle control group.
# Imipramine (32 mg/kg s.c.), administered under the same experimental conditions, was used as reference substance. The experiment therefore included 8 groups.
# Data with the test substance were analysed by comparing treated groups with vehicle control using one-way ANOVA followed by post-hoc Dunnett's tests. Data with the reference substance were analysed using unpaired Student's t tests. Due to the number of groups, the study was conducted over 2 separate sub-experiments, each subexperiment including 5 mice per group.
# Mice (NMRI) [5] = assay: Marble burying test in mouse; type: in vivo; conditions: for Number of marbles covered by sawdust, Mean ± SEM: 30 minute test, 25 marbles
# Description: The method, which detects anxiolytic/tranquillizing activity, follows that described by Broekkamp et al (Eur. J. Pharmacol., 126, 223-229, 1986). Mice exposed to novel objects (marbles) will bury them in the sawdust floor covering. Anxiolytics decrease the number of marbles buried at non-sedative doses.
# Mice (NMRI) were individually placed in transparent plastic cages (33×21×18 cm) with 5 cm of sawdust on the floor and 25 marbles grouped in the centre of the cage. The cage was covered with an inverted plastic cage. Each test cage, together with the marbles, was impregnated with mouse odor before-hand by leaving 10 mice in the cage for 15 minutes. These mice then played no further role in the experiment.
# Nalmefene was tested in the marble burying model as the sole active compound. The number of marbles covered by sawdust (⅔ or more) was counted at the end of a 30 minute test. 12 mice were studied per group. The test was performed blind. Nalmefene was evaluated at 3 doses (0.01, 0.1 and 1 mg/kg), administered s.c. 30 minutes before the test, and compared with a vehicle control group. Clobazam (8 mg/kg s.c.), administered under the same experimental conditions, was used as reference substance. The experiment therefore included 8 groups.
# Data with Nalmefene were analysed by comparing treated groups with vehicle control using Kruskall-Wallis test followed by Mann-Whitney U tests. Data with the reference substance were analysed using Mann-Whitney U tests. Due to the number of groups, the study was conducted over 2 separate sub-experiments, each sub-experiment including 6 mice per group.
# κ receptor = κ receptor (Homo sapiens, UniProt P41145); conditions: in vitro; cited from earlier work
# δ receptor = δ receptor (Homo sapiens, UniProt P41143); conditions: in vitro; cited from earlier work
# Rats (Wistar) = assay: Forced swim test in rats; type: in vivo, rat; conditions: 0.01, 0.1 and 1 mg/kg s.c. 30 minutes before the test, versus vehicle
# Protocol: The method, which detects antidepressant activity, follows that described by Porsolt et al (Eur. J. Pharmacol., 47, 379-391, 1978). Rats forced to swim in a situation from which they cannot escape eventually become immobile. Antidepressants decrease the duration of immobility.
# Nalmefene was tested as the sole active compound. Rats (Wistar) were individually placed in a cylinder (height=40 cm; diameter=20 cm) containing 13 cm water (25° C.) for 15 minutes on the first day of the experiment (Session 1) and were then placed back in the water 24 hours later for a 5 minute test (Session 2). The duration of immobility during the 5 minute test was measured. 6 rats were studied per group. The test was performed blind. Nalmefene was evaluated at 3 doses (0.01, 0.1 and 1 mg/kg), administered s.c. 30 minutes before the test, and compared with a vehicle control group.
# Data with the test substance were analysed by comparing treated groups with vehicle control using one-way ANOVA followed by post-hoc Dunnett's tests. Data with the reference substance were analysed using unpaired Student's t tests.
# [6] = 1 year, nalmefene 18 mg as-needed
# [7] = 0.1 mg/kg s.c. 30 minutes before the test
# [8] = 1 mg/kg s.c. 30 minutes before the test
# [9] = 10 mg/kg s.c. 30 minutes before the test
# [10] = 0.01 mg/kg s.c. 30 minutes before the test
# Chain of κ receptor (P41145 whole entry): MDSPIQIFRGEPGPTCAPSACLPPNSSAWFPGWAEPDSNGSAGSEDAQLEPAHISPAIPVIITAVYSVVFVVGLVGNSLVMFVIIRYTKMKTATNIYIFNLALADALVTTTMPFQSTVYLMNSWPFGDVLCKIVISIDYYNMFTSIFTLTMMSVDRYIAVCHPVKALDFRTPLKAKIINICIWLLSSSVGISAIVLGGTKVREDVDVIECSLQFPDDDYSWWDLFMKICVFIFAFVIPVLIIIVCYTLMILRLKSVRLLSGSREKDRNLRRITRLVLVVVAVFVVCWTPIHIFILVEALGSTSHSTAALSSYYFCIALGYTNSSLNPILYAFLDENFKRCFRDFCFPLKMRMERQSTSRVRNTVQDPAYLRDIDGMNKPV
# Chain of δ receptor (P41143 whole entry): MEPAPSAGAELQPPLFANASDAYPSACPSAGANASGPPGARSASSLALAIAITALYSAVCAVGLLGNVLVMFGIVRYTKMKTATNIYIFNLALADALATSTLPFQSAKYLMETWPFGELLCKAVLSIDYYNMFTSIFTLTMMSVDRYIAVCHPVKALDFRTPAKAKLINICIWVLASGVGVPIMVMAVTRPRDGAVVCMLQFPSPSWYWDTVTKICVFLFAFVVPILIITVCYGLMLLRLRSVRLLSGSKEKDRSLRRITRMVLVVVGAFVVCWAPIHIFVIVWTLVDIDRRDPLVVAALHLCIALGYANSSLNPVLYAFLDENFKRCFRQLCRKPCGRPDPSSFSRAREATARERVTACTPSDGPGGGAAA
# Chain of μ receptor (P35372 whole entry): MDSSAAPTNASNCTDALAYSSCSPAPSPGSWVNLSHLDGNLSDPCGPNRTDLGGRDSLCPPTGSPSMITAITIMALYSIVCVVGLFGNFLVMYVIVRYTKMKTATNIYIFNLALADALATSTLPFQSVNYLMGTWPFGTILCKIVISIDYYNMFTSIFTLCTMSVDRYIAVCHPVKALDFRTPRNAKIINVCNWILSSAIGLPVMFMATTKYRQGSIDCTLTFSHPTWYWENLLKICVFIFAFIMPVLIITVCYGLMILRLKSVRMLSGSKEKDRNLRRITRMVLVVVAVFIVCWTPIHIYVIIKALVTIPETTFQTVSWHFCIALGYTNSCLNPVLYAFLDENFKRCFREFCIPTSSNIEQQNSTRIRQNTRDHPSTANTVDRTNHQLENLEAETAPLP
structure (smiles),measurement,setting,value
O=C1CCc2ccc(OCCCCN3CCN(c4cccc(Cl)c4Cl)CC3)cc2N1 [aripiprazole],efficacy on measures of alcohol use and dependence,[1],ineffective
"C=C1CC[C@@]2(O)[C@H]3Cc4ccc(O)c5c4[C@@]2(CCN3CC2CC2)[C@H]1O5 [Nalmefene, 17-(cyclopropylmethyl)-4,5-alpha-epoxy-6-methylenemorphinan-3,14-diol]",POMS TMD score,[2]; [6],37
same,POMS TMD score,"[2]; Baseline, N=22",68
same,general mood state (POMS data overall),[2]; patients with a mood disorder,general mood state improves
same,POMS score at the end of the study versus placebo,"[2]; patients with a mood disorder at baseline, FIGS. 3b-9b",better POMS score
same,"POMS scores versus placebo: total mood disturbance, tension-anxiety, depression-rejection, anger-hostility and confusion","[2]; patients with a mood disorder at baseline, weeks 16-24, FIGS. 3b, 4b, 5b, 6b, 9b",better POMS scores
same,pattern in POMS score versus placebo,"[2]; patients without a mood disorder at baseline, FIGS. 3a-9a",no pronounced difference between nalmefene and placebo
same,HDD,[3]; [6],6.0
same,TAC,[3]; [6],20.8 g/day
same,HDD,"[3]; Baseline, N=22",16.0
same,TAC,"[3]; Baseline, N=22",80.3 g/day
same,alcohol consumption,[3]; patients with a mood disorder at baseline (MedDRA),significally reduced the alcohol consumption
same,difference between nalmefene and placebo in HDDs,"[3]; patients with a mood disorder at baseline compared with patients without, week 24, FIG. 1",more pronounced
same,difference between nalmefene and placebo in TAC,"[3]; patients with a mood disorder at baseline compared with patients without, week 24, FIG. 2",more pronounced
same,reducing TAC versus placebo,[3]; total patient group,superior to placebo
same,reducing the number of HDDs versus placebo,[3]; total patient group,superior to placebo
same,activity at the μ receptor,μ receptor,antagonist activity
same,"Duration of immobility, % compared with vehicle",Mice (NMRI) [4]; [7],+6%
same,"Duration of immobility, Mean ± SEM",Mice (NMRI) [4]; [7],206 ± 7 s
same,latency to immobility,"Mice (NMRI) [4]; 1 mg/kg s.c. 30 minutes before the test, versus vehicle",did not significantly affect
same,"Duration of immobility, Mean ± SEM",Mice (NMRI) [4]; [8],140 ± 22 s
same,"Duration of immobility, % compared with vehicle","Mice (NMRI) [4]; 1 mg/kg s.c. 30 minutes before the test, p<0.05",−28%
same,"Duration of immobility, % compared with vehicle",Mice (NMRI) [4]; [9],−3%
same,"Duration of immobility, Mean ± SEM",Mice (NMRI) [4]; [9],189 ± 11 s
same,effect in forced swim test,Mice (NMRI) [4]; 0.1 or 10 mg/kg s.c.,no effects
same,"Number of marbles covered by sawdust, % compared with vehicle",Mice (NMRI) [5]; [10],−5%
same,"Number of marbles covered by sawdust, Mean ± SEM",Mice (NMRI) [5]; [10],23.5 ± 1.2
same,"Number of marbles covered by sawdust, Mean ± SEM",Mice (NMRI) [5]; [7],21.5 ± 1.2
same,"Number of marbles covered by sawdust, % compared with vehicle","Mice (NMRI) [5]; 0.1 mg/kg s.c. 30 minutes before the test, p<0.01",−13%
same,"Number of marbles covered by sawdust, % compared with vehicle","Mice (NMRI) [5]; 0.1 mg/kg s.c. 30 minutes before the test, p<0.01, listed as nalmefene",−13%
same,"Number of marbles covered by sawdust, % compared with vehicle",Mice (NMRI) [5]; [8],−10%
same,"Number of marbles covered by sawdust, Mean ± SEM",Mice (NMRI) [5]; [8],22.4 ± 1.4
same,effect on number of marbles covered by sawdust,Mice (NMRI) [5]; 0.01 or 1 mg/kg s.c.,no significant effects
same,activity at the κ receptor,κ receptor,partial agonist activity
same,activity at the δ receptor,δ receptor,antagonist activity
same,duration of immobility during the 5 minute test,Rats (Wistar),No significant effect
OCCOCCN1CCN(C2=Nc3ccccc3Sc3ccccc32)CC1 [quetiapine],efficacy on measures of alcohol use and dependence,[1],ineffective
